Reference: patent US12084458B2, “Substituted pyridines, pyridazines, and pyrimidines as TYK2 inhibitors” (Sudo Biosciences Limited, priority 2021, dated 2024)

Key:
[1] = test system: HEK-Blue IL-23 cells (IL-23-stimulated STAT3 SEAP reporter; TYK2 JH2); experiment: HEK-Blue IL-23 SEAP reporter assay for profiling TYK2 pseudokinase (JH2) inhibition; type: cell-based; settings: 10 ng/mL human recombinant IL-23, SEAP reporter, read-out: IL23 (TYK2 inhibitory activity, IC50)
Method in brief: (§1)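 STAT-driven SEAP expression is measured with QUANTI-Blue. Cells receive test compound in serial dilution 60 min ahead of 10 ng/mL IL-23 (22-24 h) or 1 ng/mL IFNα (16-18 h).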

[2] = test system: HEK-Blue IFNα/β cells (IFNα-stimulated STAT1 SEAP reporter; TYK2 JH2); experiment: HEK-Blue IFNα/β SEAP reporter assay for profiling TYK2 pseudokinase (JH2) inhibition; type: cell-based; settings: Homo sapiens, HEK-Blue, 1 ng/mL human recombinant IFNα, read-out: IFNα (TYK2 inhibitory activity, IC50)
Method in brief: as §1

[3] = biological target: T1, TYK2 kinase domain (JH1) (Homo sapiens, UniProt P29597); experiment: HTRF-based selectivity assay, TYK2 catalytic domain; type: biochemical; settings: recombinant catalytic domain, ATP 20 μM
T1 construct: recombinant purified His or GST-tagged catalytic domain for each enzyme; made in house
T1 sequence (P29597 897-1176 limits assumed): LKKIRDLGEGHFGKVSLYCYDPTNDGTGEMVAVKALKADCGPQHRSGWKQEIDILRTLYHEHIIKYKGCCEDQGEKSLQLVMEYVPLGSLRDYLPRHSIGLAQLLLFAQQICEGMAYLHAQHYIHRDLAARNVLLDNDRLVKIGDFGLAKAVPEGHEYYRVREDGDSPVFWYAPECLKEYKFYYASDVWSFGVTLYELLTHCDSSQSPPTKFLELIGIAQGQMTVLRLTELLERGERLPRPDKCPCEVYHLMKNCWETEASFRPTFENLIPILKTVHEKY
Method: (§2) Example B-2: HTRF-Based Selectivity Assay
(§3) The ability of compounds to inhibit the activity of JAK1, JAK2, JAK3 and TYK2 is measured using a recombinant purified His or GST-tagged catalytic domain for each enzyme (JAK1, JAK2 and TYK2 are generated in-house; JAK3 was purchased from Carna biosciences, Cat #08-046) in an HTRF format biochemical assay. The reactions employs a commercial peptide substrate from Cisbio (Cat #62TK0PEC). The basic assay protocol is as follows: first, 2.5 μL of diluted compounds (4×) in DMSO are dispensed into a 384-well Optiplate. Next, 2.5 μL of enzyme (final concentrations for enzymes are: TYK2—700 ng/mL, JAK1—80.6 ng/mL, JAK2—2.1 ng/mL and JAK3—171.8 ng/mL) is added and incubated at RT for 5-20 min. Finally, 5 μl of mixture of 2× ATP [Final concentration 20 μM for TYK2, 21.43 μM for JAK1, 14.7 μM for JAK2 and 2.12 μM for JAK3]+2× Substrate [Final concentration 217 nM for TYK2, 454.7 nM for JAK1, 200 nM for JAK2 and 257.4 nM for JAK3] is added to 384 well Optiplate. Composition of Kinase assay buffer used in the assay is as follows: HEPES 50 mM, EGTA 1 mM, MgCl2 10 mM, DTT 2 mM, Tween-20 0.01% and water. Then the plates are shaken and then incubated at 26.5° C. for 60 min.

[4] = biological target: T2, JAK1 kinase domain (JH1) (Homo sapiens, UniProt P23458); experiment: HTRF-based selectivity assay, JAK1 catalytic domain; type: biochemical; settings: recombinant catalytic domain, ATP 21.43 μM
T2 construct: recombinant purified His or GST-tagged catalytic domain for each enzyme; made in house
Method: as §2, §3

[5] = biological target: T3, JAK2 kinase domain (JH1) (Homo sapiens, UniProt O60674); experiment: HTRF-based selectivity assay, JAK2 catalytic domain; type: biochemical; settings: recombinant catalytic domain, ATP 14.7 μM
T3 construct: recombinant purified His or GST-tagged catalytic domain for each enzyme; made in house
Method: as §2, §3

[6] = biological target: T4, JAK3 kinase domain (JH1) (Homo sapiens, UniProt P52333); experiment: HTRF-based selectivity assay, JAK3 catalytic domain; type: biochemical; settings: recombinant catalytic domain, ATP 2.12 μM
T4 construct: recombinant purified His or GST-tagged catalytic domain for each enzyme; purchased Carna biosciences 08-046
Method: as §2, §3

[7] = test system: HEK-Blue IL-2 reporter cells (IL-2-stimulated STAT5 SEAP reporter); experiment: HEK-Blue IL-2 SEAP reporter assay for determining selectivity; type: cell-based; settings: 4 ng/mL human recombinant IL-2
Method in brief: (§4)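 Cells were plated for 20-22 h, then pretreated with serially diluted compound for 60 min. They were stimulated for 24 h with 4 ng/mL human recombinant IL-2 or 50 ng/mL human recombinant IFNγ, and SEAP induction was read with QUANTI-Blue.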

[8] = test system: HEK-Blue IFNγ reporter cells (IFNγ-stimulated STAT1 SEAP reporter); experiment: HEK-Blue IFNγ SEAP reporter assay for determining selectivity; type: cell-based; settings: Homo sapiens, HEK-Blue, 50 ng/mL human recombinant IFNγ, read-out: IFN-γ (SEAP selectivity, IC50)
Method in brief: as §4

T3 sequence (O60674 849-1124 limits assumed): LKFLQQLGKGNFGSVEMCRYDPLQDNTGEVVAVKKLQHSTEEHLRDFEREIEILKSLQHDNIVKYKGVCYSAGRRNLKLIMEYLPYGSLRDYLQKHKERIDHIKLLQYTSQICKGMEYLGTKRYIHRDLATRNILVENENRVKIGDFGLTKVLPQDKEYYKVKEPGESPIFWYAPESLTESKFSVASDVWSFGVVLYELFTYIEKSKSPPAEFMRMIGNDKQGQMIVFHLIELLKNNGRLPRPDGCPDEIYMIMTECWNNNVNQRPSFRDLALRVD
T2 sequence (P23458 875-1153 limits assumed): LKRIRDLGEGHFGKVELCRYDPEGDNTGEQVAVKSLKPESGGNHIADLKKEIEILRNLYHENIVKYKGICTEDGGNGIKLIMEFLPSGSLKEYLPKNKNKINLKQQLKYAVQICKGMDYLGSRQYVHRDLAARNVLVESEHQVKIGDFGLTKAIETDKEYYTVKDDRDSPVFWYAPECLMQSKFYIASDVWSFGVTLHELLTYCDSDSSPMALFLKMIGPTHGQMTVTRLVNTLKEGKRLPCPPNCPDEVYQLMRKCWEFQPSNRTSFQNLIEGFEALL
T4 sequence (P52333 822-1111 limits assumed): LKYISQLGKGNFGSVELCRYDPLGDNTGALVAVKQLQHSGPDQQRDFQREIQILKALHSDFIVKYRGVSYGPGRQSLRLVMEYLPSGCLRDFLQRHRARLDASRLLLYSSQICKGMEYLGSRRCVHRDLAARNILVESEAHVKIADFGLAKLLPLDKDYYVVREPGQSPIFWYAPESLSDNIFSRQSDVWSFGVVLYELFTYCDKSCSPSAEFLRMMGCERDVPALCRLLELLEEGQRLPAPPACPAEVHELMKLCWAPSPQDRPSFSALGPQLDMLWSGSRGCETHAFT

SMILES	IC50 [1]	IC50 [2]	IC50 [3]	IC50 [4]	IC50 [5]	IC50 [6]	IC50 [7]	IC50 [8]
[2H]C([2H])([2H])NC(=O)c1nnc(NC(=O)C2CC2)cc1Nc1cccc2c1N(C)Cc1ncnn1-2 [Compound 7, 6-(cyclopropanecarboxamido)-N-(methyl-d3)-4-((5-methyl-4,5-dihydro-[1,2,4]triazolo[1,5-a]quinoxalin-6-yl)amino)pyridazine-3-carboxamide]	< 30 nM	30 to 300 nM	> 1000 nM	> 1000 nM	> 1000 nM	> 1000 nM	> 1000 nM	30 to 300 nM
[2H]C([2H])([2H])NC(=O)c1nnc(NC(=O)C2CC2)cc1Nc1cccc2c1N(C([2H])([2H])[2H])Cc1nn(C)nc1-2 [Compound 48, 6-(cyclopropanecarboxamido)-N-(methyl-d3)-4-((2-methyl-5-(methyl-d3)-4,5-dihydro-2H-[1,2,3]triazolo[4,5-c]quinolin-6-yl)amino)pyridazine-3-carboxamide]	< 30 nM	< 30 nM	> 1000 nM	> 1000 nM	> 1000 nM	> 1000 nM	300 to 1000 nM	30 to 300 nM
CNC(=O)c1nnc(NC(=O)C2CC2)cc1Nc1cccc2c1OCCn1cnnc1-2 [Compound 72, 6-(cyclopropanecarboxamido)-4-((5,6-dihydrobenzo[f][1,2,4]triazolo[4,3-d][1,4]oxazepin-8-yl)amino)-N-methylpyridazine-3-carboxamide]	300 to 1000 nM	> 1000 nM	> 1000 nM	> 1000 nM	30 to 300 nM	300 to 1000 nM	> 1000 nM	> 1000 nM
CNC(=O)c1nnc(Nc2ccc(F)cn2)cc1Nc1cccc2c1OCCn1cnnc1-2 [Compound 73, 4-((5,6-dihydrobenzo[f][1,2,4]triazolo[4,3-d][1,4]oxazepin-8-yl)amino)-6-((5-fluoropyridin-2-yl)amino)-N-methylpyridazine-3-carboxamide]	30 to 300 nM	300 to 1000 nM	> 1000 nM	> 1000 nM	300 to 1000 nM	> 1000 nM	300 to 1000 nM	300 to 1000 nM
CNC(=O)c1nnc(Nc2ccc(F)cn2)cc1Nc1cccc2c1N(C)CCn1cnnc1-2 [Compound 76, 6-((5-fluoropyridin-2-yl)amino)-N-methyl-4-((7-methyl-6,7-dihydro-5H-benzo[f][1,2,4]triazolo[4,3-d][1,4]diazepin-8-yl)amino)pyridazine-3-carboxamide]	< 30 nM	30 to 300 nM	> 1000 nM	> 1000 nM	300 to 1000 nM	300 to 1000 nM	> 1000 nM	300 to 1000 nM
